Where two headings read alike, the source gives them in different places. Marks after values point to notes of the source that are not given here.
What was measured:
[1] = system: 2D rat cortical cultures; conditions: cytotoxicity AlamarBlue, cited from earlier work; on hitc CCTE Shafer MEA dev active electrodes number: key: 1 (active); 0 (inactive); on hitc CCTE Shafer MEA dev burst duration mean: key: 1 (active); 0 (inactive); on hitc CCTE Shafer MEA dev burst rate: key: 1 (active); 0 (inactive); on hitc CCTE Shafer MEA dev bursting electrodes number: key: 1 (active); 0 (inactive); on hitc CCTE Shafer MEA dev correlation coefficient mean: key: 1 (active); 0 (inactive); on hitc CCTE Shafer MEA dev firing rate mean: key: 1 (active); 0 (inactive); on hitc CCTE Shafer MEA dev inter network spike interval mean: key: 1 (active); 0 (inactive); on hitc CCTE Shafer MEA dev interburst interval mean: key: 1 (active); 0 (inactive); on hitc CCTE Shafer MEA dev mutual information norm: key: 1 (active); 0 (inactive); on hitc CCTE Shafer MEA dev network spike duration std: key: 1 (active); 0 (inactive); on hitc CCTE Shafer MEA dev network spike number: key: 1 (active); 0 (inactive); on hitc CCTE Shafer MEA dev network spike peak: key: 1 (active); 0 (inactive); on hitc CCTE Shafer MEA dev per burst interspike interval: key: 1 (active); 0 (inactive); on hitc CCTE Shafer MEA dev per burst spike percent: key: 1 (active); 0 (inactive); on hitc CCTE Shafer MEA dev per network spike spike number mean: key: 1 (active); 0 (inactive); on hitc CCTE Shafer MEA dev per network spike spike percent: key: 1 (active); 0 (inactive); on hitc CCTE Shafer MEA dev spike duration mean: key: 1 (active); 0 (inactive)
[2] = system: BrainSpheres; assay: Cytotoxicity evaluation, resazurin assay (BrainSphere.Cyto); type: cell-based, human; conditions: for AC50: read-out: ac50 BrainSphere.Cyto; on hitc BrainSphere.Cyto: key: 1 (active); 0 (inactive)
Description: For the resazurin assay, BrainSpheres were cultured for 7 weeks in non-treated 6-well plates under gyratory shaking. Subsequently, the cells were exposed in the same manner as the HD-MEA plates. This assay was used to determine cell viability after exposure for 13 days to the different compounds. After exposure, resazurin diluted in PBS was added directly to the 6-well plates to a final concentration of 0.1 mg/ml. The plates were then put in an incubator for 3 h at 37 °C, 5% CO2. Then, 100 µl of the media was collected and transferred in a 96-well plate for fluorescence analysis, which was done at ex:530 nm/em:590 nm in a multi-well fluorometric reader CytoFluor series 4000 (PerSeptive Biosystems, Inc).
Ten metrics were measured to evaluate changes in neural activity in the BrainSphere MEA assay (Table 3). Considering the complexity of the data which includes seven recording days for each single ROI in a well, an area under the curve (AUC) metric was used to reduce activity across time as described in previous publications (Brown et al. [2016]; Frank et al. [2017b]; Shafer et al. [2019]). […] For concentration–response modeling, the mean AUC values across all the BrainSpheres per well (technical replicates) was computed for each endpoint, such that each concentration included biological replicates from at least three separate wells on three separate plates, representing each individual experiment. The mean AUC values were used for concentration–response modeling using the R package tcplfit2 (version 0.1.6) (Sheffield et al. [2022]). Data were normalized as a percent of vehicle control wells by plate using the equation: resp.pc=rval-bval/bval×100 where resp.pc is the percent of control value, rval is the response value, and bval is the baseline value (defined as the mean of the vehicle control and the lowest tested concentration). […] The activity cutoff was defined as 3 times the median absolute deviation (bmad) of baseline values. A curve was defined as ‘active’ if the continuous hit call was ≥ 0.9. See Supplemental Table 1 for the bmad, activity cutoff threshold, SD, and benchmark response for each endpoint in the BrainSphere MEA. Potency was defined as the concentration at 50% maximal activity (AC50 log10 µM).

[3] = system: 2D rat cortical cultures; conditions: cited from earlier work; on hitc CCTE Shafer MEA dev active electrodes number: key: 1 (active); 0 (inactive); on hitc CCTE Shafer MEA dev burst duration mean: key: 1 (active); 0 (inactive); on hitc CCTE Shafer MEA dev burst rate: key: 1 (active); 0 (inactive); on hitc CCTE Shafer MEA dev bursting electrodes number: key: 1 (active); 0 (inactive); on hitc CCTE Shafer MEA dev correlation coefficient mean: key: 1 (active); 0 (inactive); on hitc CCTE Shafer MEA dev firing rate mean: key: 1 (active); 0 (inactive); on hitc CCTE Shafer MEA dev inter network spike interval mean: key: 1 (active); 0 (inactive); on hitc CCTE Shafer MEA dev interburst interval mean: key: 1 (active); 0 (inactive); on hitc CCTE Shafer MEA dev mutual information norm: key: 1 (active); 0 (inactive); on hitc CCTE Shafer MEA dev network spike duration std: key: 1 (active); 0 (inactive); on hitc CCTE Shafer MEA dev network spike number: key: 1 (active); 0 (inactive); on hitc CCTE Shafer MEA dev network spike peak: key: 1 (active); 0 (inactive); on hitc CCTE Shafer MEA dev per burst interspike interval: key: 1 (active); 0 (inactive); on hitc CCTE Shafer MEA dev per burst spike percent: key: 1 (active); 0 (inactive); on hitc CCTE Shafer MEA dev per network spike spike number mean: key: 1 (active); 0 (inactive); on hitc CCTE Shafer MEA dev per network spike spike percent: key: 1 (active); 0 (inactive); on hitc CCTE Shafer MEA dev spike duration mean: key: 1 (active); 0 (inactive)

**Q.** With `CN(C)C(=O)C(CCN1CCC(O)(c2ccc(Cl)cc2)CC1)(c1ccccc1)c1ccccc1` [Loperamide] as the compound, how does the AC50 ([1]; read-out: ac50 CCTE_Shafer_MEA_dev_AB, rNFA mc5) read?
**A.** 5020 nM

**Q.** And the “Cytotoxicity / cell viability in the BrainSphere resazurin assay (in words)” value [2]?
**A.** positive hit call for cytotoxicity

**Q.** And the AC50 ([2]; Homo sapiens, 312 h)?
**A.** 18000 nM

**Q.** And the “ACC BrainSphere.Cyto” value ([2]; human)?
**A.** 8.7 µM

**Q.** What about the “BMD BrainSphere.Cyto” value ([2]; human) of the same compound?
**A.** 8.4 µM

**Q.** What about the “Cytotoxicity / cell viability in the BrainSphere resazurin assay (in words)” value ([2]; human) of the same compound?
**A.** appeared to demonstrate cytotoxic effects at 30 and 90 µM

**Q.** What about the Cytotoxicity hit ([2]; human) of the same compound?
**A.** 1*

**Q.** And the “hitc BrainSphere.Cyto” value ([2]; human)?
**A.** 1

**Q.** And the AC50 [2]?
**A.** 18100 nM

**Q.** What about the “Bioactivity in the rNFA (in words)” value [3] of the same compound?
**A.** alter multiple parameters of network formation

**Q.** And the “hitc CCTE_Shafer_MEA_dev_active_electrodes_number” value [3]?
**A.** 1

**Q.** And the “hitc CCTE_Shafer_MEA_dev_burst_duration_mean” value [3]?
**A.** 1

**Q.** What about the “hitc CCTE_Shafer_MEA_dev_burst_rate” value [3] of the same compound?
**A.** 1

**Q.** And the “hitc CCTE_Shafer_MEA_dev_bursting_electrodes_number” value [3]?
**A.** 1

**Q.** What about the “hitc CCTE_Shafer_MEA_dev_correlation_coefficient_mean” value [3] of the same compound?
**A.** 1

**Q.** What about the “hitc CCTE_Shafer_MEA_dev_firing_rate_mean” value [3] of the same compound?
**A.** 1

**Q.** What about the “hitc CCTE_Shafer_MEA_dev_inter_network_spike_interval_mean” value [3] of the same compound?
**A.** 0

**Q.** And the “hitc CCTE_Shafer_MEA_dev_interburst_interval_mean” value [3]?
**A.** 1

**Q.** What about the “hitc CCTE_Shafer_MEA_dev_mutual_information_norm” value [3] of the same compound?
**A.** 1

**Q.** And the “hitc CCTE_Shafer_MEA_dev_network_spike_duration_std” value [3]?
**A.** 1

**Q.** And the “hitc CCTE_Shafer_MEA_dev_network_spike_number” value [3]?
**A.** 1

**Q.** And the “hitc CCTE_Shafer_MEA_dev_network_spike_peak” value [3]?
**A.** 1

**Q.** What about the “hitc CCTE_Shafer_MEA_dev_per_burst_interspike_interval” value [3] of the same compound?
**A.** 1

**Q.** What about the “hitc CCTE_Shafer_MEA_dev_per_burst_spike_percent” value [3] of the same compound?
**A.** 1

**Q.** What about the “hitc CCTE_Shafer_MEA_dev_per_network_spike_spike_number_mean” value [3] of the same compound?
**A.** 1

**Q.** And the “hitc CCTE_Shafer_MEA_dev_per_network_spike_spike_percent” value [3]?
**A.** 1

**Q.** What about the “hitc CCTE_Shafer_MEA_dev_spike_duration_mean” value [3] of the same compound?
**A.** 1

**Q.** And the AC50 ([3]; read-out: ac50 CCTE_Shafer_MEA_dev_active_electrodes_number)?
**A.** 196 nM

**Q.** And the AC50 ([3]; read-out: ac50 CCTE_Shafer_MEA_dev_burst_duration_mean)?
**A.** 33 nM

**Q.** And the AC50 ([3]; read-out: ac50 CCTE_Shafer_MEA_dev_burst_rate)?
**A.** 42 nM

**Q.** What about the AC50 ([3]; read-out: ac50 CCTE_Shafer_MEA_dev_bursting_electrodes_number) of the same compound?
**A.** 117 nM

**Q.** And the AC50 ([3]; read-out: ac50 CCTE_Shafer_MEA_dev_correlation_coefficient_mean)?
**A.** 766 nM

**Q.** What about the AC50 ([3]; read-out: ac50 CCTE_Shafer_MEA_dev_firing_rate_mean) of the same compound?
**A.** 63 nM

**Q.** And the AC50 ([3]; read-out: ac50 CCTE_Shafer_MEA_dev_interburst_interval_mean)?
**A.** 249 nM

**Q.** What about the AC50 ([3]; read-out: ac50 CCTE_Shafer_MEA_dev_mutual_information_norm) of the same compound?
**A.** 112 nM

**Q.** What about the AC50 ([3]; read-out: ac50 CCTE_Shafer_MEA_dev_network_spike_duration_std) of the same compound?
**A.** 262 nM

**Q.** And the AC50 ([3]; read-out: ac50 CCTE_Shafer_MEA_dev_network_spike_number)?
**A.** 33 nM

**Q.** What about the AC50 ([3]; read-out: ac50 CCTE_Shafer_MEA_dev_network_spike_peak) of the same compound?
**A.** 1810 nM

**Q.** And the AC50 ([3]; read-out: ac50 CCTE_Shafer_MEA_dev_per_burst_interspike_interval)?
**A.** 67 nM

**Q.** And the AC50 ([3]; read-out: ac50 CCTE_Shafer_MEA_dev_per_burst_spike_percent)?
**A.** 244 nM

**Q.** What about the AC50 ([3]; read-out: ac50 CCTE_Shafer_MEA_dev_per_network_spike_spike_number_mean) of the same compound?
**A.** 766 nM

**Q.** What about the AC50 ([3]; read-out: ac50 CCTE_Shafer_MEA_dev_per_network_spike_spike_percent) of the same compound?
**A.** 2300 nM

**Q.** What about the AC50 ([3]; read-out: ac50 CCTE_Shafer_MEA_dev_spike_duration_mean) of the same compound?
**A.** 511 nM

**Q.** Which “hitc CCTE_Shafer_MEA_dev_AB” value ([1]; rNFA mc5 hit call) does the source give for `CCCC(CCC)C(=O)O` [Sodium valproate] here?
**A.** 0

**Q.** What about the AC50 ([2]; Homo sapiens, 312 h, resazurin, day 13, Supplement 3 prints it also for curves with hit call 0) of the same compound?
**A.** 45000 nM

**Q.** And the “BMD BrainSphere.Cyto” value ([2]; human)?
**A.** 117 µM

**Q.** And the Cytotoxicity hit ([2]; human)?
**A.** 0

**Q.** What about the “hitc BrainSphere.Cyto” value ([2]; human) of the same compound?
**A.** 0

**Q.** And the “Number of active endpoints in the rNFA” value ([3]; of 17 MEA endpoints, ref Brown et al. [2016], Carstens et al. [2022], Frank et al. [2017b], Shafer et al. [2019], ToxCast invitrodb (v4.2))?
**A.** two

**Q.** And the AC50 ([3]; rNFA mc5, aenm per_network_spike_spike_number_mean, read-out: ac50 CCTE_Shafer_MEA_dev_per_network_spike_spike_number_mean)?
**A.** 576000 nM

**Q.** What about the AC50 ([3]; rNFA mc5, aenm per_network_spike_spike_percent, read-out: ac50 CCTE_Shafer_MEA_dev_per_network_spike_spike_percent) of the same compound?
**A.** 488000 nM

**Q.** And the “hitc CCTE_Shafer_MEA_dev_active_electrodes_number” value ([3]; rNFA mc5 hit call, aenm active_electrodes_number)?
**A.** 0

**Q.** And the “hitc CCTE_Shafer_MEA_dev_burst_duration_mean” value ([3]; rNFA mc5 hit call, aenm burst_duration_mean)?
**A.** 0

**Q.** And the “hitc CCTE_Shafer_MEA_dev_burst_rate” value ([3]; rNFA mc5 hit call, aenm burst_rate)?
**A.** 0

**Q.** And the “hitc CCTE_Shafer_MEA_dev_bursting_electrodes_number” value ([3]; rNFA mc5 hit call, aenm bursting_electrodes_number)?
**A.** 0

**Q.** What about the “hitc CCTE_Shafer_MEA_dev_correlation_coefficient_mean” value ([3]; rNFA mc5 hit call, aenm correlation_coefficient_mean) of the same compound?
**A.** 0

**Q.** And the “hitc CCTE_Shafer_MEA_dev_firing_rate_mean” value ([3]; rNFA mc5 hit call, aenm firing_rate_mean)?
**A.** 0

**Q.** What about the “hitc CCTE_Shafer_MEA_dev_inter_network_spike_interval_mean” value ([3]; rNFA mc5 hit call, aenm inter_network_spike_interval_mean) of the same compound?
**A.** 0

**Q.** What about the “hitc CCTE_Shafer_MEA_dev_interburst_interval_mean” value ([3]; rNFA mc5 hit call, aenm interburst_interval_mean) of the same compound?
**A.** 0

**Q.** What about the “hitc CCTE_Shafer_MEA_dev_mutual_information_norm” value ([3]; rNFA mc5 hit call, aenm mutual_information_norm) of the same compound?
**A.** 0

**Q.** What about the “hitc CCTE_Shafer_MEA_dev_network_spike_duration_std” value ([3]; rNFA mc5 hit call, aenm network_spike_duration_std) of the same compound?
**A.** 0

**Q.** What about the “hitc CCTE_Shafer_MEA_dev_network_spike_number” value ([3]; rNFA mc5 hit call, aenm network_spike_number) of the same compound?
**A.** 0

**Q.** And the “hitc CCTE_Shafer_MEA_dev_network_spike_peak” value ([3]; rNFA mc5 hit call, aenm network_spike_peak)?
**A.** 0

**Q.** What about the “hitc CCTE_Shafer_MEA_dev_per_burst_interspike_interval” value ([3]; rNFA mc5 hit call, aenm per_burst_interspike_interval) of the same compound?
**A.** 0

**Q.** What about the “hitc CCTE_Shafer_MEA_dev_per_burst_spike_percent” value ([3]; rNFA mc5 hit call, aenm per_burst_spike_percent) of the same compound?
**A.** 0

**Q.** What about the “hitc CCTE_Shafer_MEA_dev_per_network_spike_spike_number_mean” value ([3]; rNFA mc5 hit call, aenm per_network_spike_spike_number_mean) of the same compound?
**A.** 1

**Q.** What about the “hitc CCTE_Shafer_MEA_dev_per_network_spike_spike_percent” value ([3]; rNFA mc5 hit call, aenm per_network_spike_spike_percent) of the same compound?
**A.** 1

**Q.** What about the “hitc CCTE_Shafer_MEA_dev_spike_duration_mean” value ([3]; rNFA mc5 hit call, aenm spike_duration_mean) of the same compound?
**A.** 0

**Q.** What about the “Concentrations at which active in the rNFA” value ([3]; ref Brown et al. [2016], Carstens et al. [2022], Frank et al. [2017b], Shafer et al. [2019], ToxCast invitrodb (v4.2)) of the same compound?
**A.** exceeding 450 µM

Reference: publication PMC12198282, “Application of a high-density microelectrode array assay using a 3D human iPSC-derived brain microphysiological system model for in vitro neurotoxicity screening of environmental compounds” (Archives of Toxicology, 2025)
